Data set [1] deals with mouse brain (c-fos expression). From the text:
A unique and novel approach to preclinical testing of psychiatric drugs is based on the proposition that a direct readout of drug-evoked brain activation or inhibition in an animal is the most relevant preclinical assay, because psychiatric drugs exert their effects via activation or inhibition of specific neural circuits and cell types in the brain. […] The method called “pharmacomapping” (implemented by Certerra, Inc. Farmingdale, N.Y.) is based on a largely automated drug-screening platform that comprises whole-brain detection of drug-evoked neuronal activation represented by drug-evoked expression of the immediate early gene (IEG) c-fos (Herrera and Robertson 1996). Until now, the detection of c-fos as a marker of brain activation has been done by laborious methods of in situ hybridization or immunohistochemistry in brain tissue sections, followed by mounting the sections on microscopic slides, manual imaging, and largely visual quantification. Nevertheless, over the last two decades a number of studies used these methods to test drug-evoked activity in the mouse or rat brain for various psychoactive medications, including antipsychotics, antidepressants, stimulants and anxiolytics (Engber et al., 1998; Kiss, 2018; Salminen et al., 1996; SEMBA et al., 1996; Slattery et al., 2005; Sumner et al., 2004).
In contrast to the older methods, the pharmacomapping method uses automated and standardized whole-brain immunostaining and brain clearing together with advanced microscopy (light-sheet fluorescence microscopy, LSFM), computational (e.g. machine learning) and statistical methods (FIG. 1). The first generation of this platform used serial two-photon tomography (STPT) as a method for imaging and c-fos-GFP mice expressing green fluorescent protein (GFP) under the control of the c-fos promoter (US 20140297199A1).

The subject of another data set is mouse. Put plainly: forced swim test. Type of data set: in vivo. The following applies: for time spent in floating (immobility) during a 6 min forced swim: compared to control vehicle-treated group, FIG. 5; for time spent floating in forced swim: single dose 10 mg/kg, vs vehicle. As for the experimental part:
The forced swim test is a frequently used behavioral protocol with a well-established therapeutic predictability for a broad range of antidepressants including ketamine (Porsolt et al. 1977; Cryan and Mombereau 2004; Cryan et al. 2005; Lucki et al. 2001). In this test the mouse is put in a beaker filled with water and the time spent struggling, swimming and floating is measured, with the time spent floating when the mouse stops struggling to swim—being used as a behavioral correlate of depression.

Data set [2] relates to patients with severe major depressive disorder. The following applies: daily oral gaboxadol 5 mg or 10 mg with escitalopram 20 mg, 490 patients; cited from earlier work.
A further data set deals with insomnia. The following applies: three-month efficacy study; cited from earlier work.
The test system of data set [3] is combined delta, theta and alpha activity. To be noted: 160 minutes after the first treatment; Nutt et al (2015); cited from earlier work.
The conditions of data set [4]: cited from earlier work; for Apparent t1/2: harmonic mean N = 10; for Tmax: median N = 10.
The mark [5] stands for this setting: acute single dose 10 mg/kg, 10 mg/kg.
Setting [6] is: 10 mg I.V., geometric mean N = 10.
Where [7] appears, read: 10 mg Oral, geometric mean N = 10.

“Also recorded” adds a separate entry of the source. Where two headings read alike, the source gives them in different places.

`Oc1noc2c1CCNC2` [gaboxadol, 4,5,6,7-tetrahydroisoxazolo (5,4-c) pyridin-3-ol]: the “drug-evoked brain activation (pharmacomap)” value in data set [1] (3 mg/kg alone) is listed as “neither gaboxadol at 3 mg/kg nor ketamine at 6 mg/kg alone evoked any brain activation detectable”; in data set [1] (setting [5]), “very similar brain activation as ketamine”; in data set [1] (acute single dose 10 mg/kg, listed as Gaboxadol, 10 mg/kg), “broad brain activation that is highly similar to that of ketamine”. Also, the “time spent in floating (immobility) during a 6 min forced swim” value in the data set on mouse is reported as “significantly reduced”. The “time spent floating in forced swim” value in the data set with mouse (1 hour after drug delivery) and with mouse (24 hours after drug delivery) was “nearly identical behavioral effect as the ketamine group” in each case. Moreover, the “additional benefit in treatment of severe major depressive disorder” value in data set [2] is “no additional benefit”. Besides, in the data set on insomnia, the “effects in sleep onset and sleep maintenance” value is recorded as “failed to show significant effects”. Moreover, the “whole head MEG planar gradiometer increase in combined delta, theta and alpha activity” value in data set [3] was “≥ +3”. Further, the fe in data set [4] (2.5 mg single oral dose, geometric mean N = 10) is 43%; in data set [4] (5 mg single oral dose, geometric mean N = 10) it was 45%; in data set [4] (setting [6]) it was 53%; in data set [4] (setting [7]), 53%; in data set [4] (15 mg single oral dose, geometric mean N = 10) it was 50%; in data set [4] (20 mg single oral dose, geometric mean N = 10) it was 53%. The “AUC0-∞” value in data set [4] (2.5 mg single oral dose, geometric mean N = 10, potency adjusted) is 90 ng·h/mL; in data set [4] (setting [6]), 380 ng·h/mL. Moreover, the “Apparent t1/2” value in data set [4] (2.5 mg single oral dose) is 1.5 h; in data set [4] (5 mg single oral dose), 1.5 h; in data set [4] (10 mg I.V.), 1.5 h; in data set [4] (10 mg Oral), 1.6 h; in data set [4] (15 mg single oral dose), 1.5 h; in data set [4] (20 mg single oral dose), 1.6 h. Further, the Tmax in data set [4] (2.5 mg single oral dose) is 0.5 h; in data set [4] (5 mg single oral dose), 0.6 h; in data set [4] (10 mg Oral), 0.5 h; in data set [4] (15 mg single oral dose), 0.5 h; in data set [4] (20 mg single oral dose), 0.6 h. The CLR in data set [4] (setting [7]) is given as 250 mL/min. In addition, in data set [4] (dose range 2.5 to 20 mg oral), the “dose proportionality of plasma AUC0-∞ and Cmax” value was “dose proportional increases”. The “half-life (t1/2)” value in data set [4] (independent of dose across 2.5 to 20 mg oral) was 1.5 h.

For the compound `CNC1(c2ccccc2Cl)CCCCC1=O` (centres unmarked) [ketamine], the “drug-evoked brain activation (pharmacomap)” value in data set [1] (6 mg/kg alone) is “neither gaboxadol at 3 mg/kg nor ketamine at 6 mg/kg alone evoked any brain activation detectable”; in data set [1] (acute single dose 5 mg/kg), “modest activation”; in data set [1] (setting [5]), “very robust and broad activation; also recorded: very broad activation pattern”; in data set [1] (acute single dose 100 mg/kg), “modest activation”. In the data set with mouse, the “time spent in floating (immobility) during a 6 min forced swim” value is given as “significantly reduced”. The “time spent floating in forced swim” value in the data set with mouse (1 hour after drug delivery) and in the data set with mouse (24 hours after drug delivery) was “significantly decreases” throughout.
